Results as given in ChEMBL document CHEMBL1142878, “Synthesis and cytotoxicity evaluation of substituted pyridazino[4,5-b]phenazine-5,12-diones and tri/tetra-azabenzofluorene-5,6-diones” (Eur J Med Chem, 2007).

Experiments:
Assay type in all cases: functional, cell-based
[1] = tested on: A549; assay: Anticancer activity against human A549 cells after 48 hrs by SRB assay; settings: A549, 48 h
[2] = tested on: SK-OV-3; assay: Anticancer activity against human SKOV3 cells after 48 hrs by SRB assay; settings: SK-OV-3, 48 h
[3] = tested on: SK-MEL-2; assay: Anticancer activity against human SK-MEL-2 cells after 48 hrs by SRB assay; settings: SK-MEL-2, 48 h
[4] = tested on: XF498; assay: Anticancer activity against human XF498 cells after 48 hrs by SRB assay; settings: XF498, 48 h
[5] = tested on: HCT-15; assay: Anticancer activity against human HCT15 cells after 48 hrs by SRB assay; settings: HCT-15, 48 h

IC50 [1] [nM] | IC50 [2] [nM] | IC50 [3] [nM] | IC50 [5] [nM] | SMILES | IC50 [4] [nM]
109 | 39 | 29 | 93 | COc1cccc2nc3c(nc12)C(=O)c1cnncc1C3=O | 65
53 | 32 | 15 | 30 | CCOc1cccc2nc3c(nc12)C(=O)c1cnncc1C3=O | 29
745 | 183 | 286 | 978 | Cc1cnc2nc3c(n2c1)C(=O)C(=O)c1cccnc1-3 | 382
118 | 181 | 97 | 225 | COc1cccc2c1C(=O)c1c(O)c3c(c(O)c1C2=O)C[C@@](O)(C(=O)CO)C[C@@H]3O[C@H]1C[C@H](N)[C@H](O)[C@H](C)O1 [DOXORUBICIN] | 112
174 | 79 | 116 | 195 | O=C1c2cnncc2C(=O)c2nc3cc(C(F)(F)F)ccc3nc21 | 116
112 | 51 | 122 | 123 | Cc1cccn2c3c(nc12)-c1ncccc1C(=O)C3=O | 86
138 | 41 | 151 | 116 | O=C1c2cnncc2C(=O)c2nc3cc4c(cc3nc21)OCO4 | 118
98 | 18 | 114 | 123 | O=C1C(=O)c2c(nc3cnccn23)-c2ncccc21 | 92
29 | 70 | 34 | 18 | Cc1cccc2nc3c(nc12)C(=O)c1cnncc1C3=O | 21
10 | 34 | 19 | 12 | CCc1cccc2nc3c(nc12)C(=O)c1cnncc1C3=O | 13
 | 63 | 85 | 74 | O=C1c2cnncc2C(=O)c2nc3cc(OC(F)(F)F)ccc3nc21 | 98
117 | 56 | 125 | 122 | O=C1C(=O)c2c(nc3c(C(=O)O)cccn23)-c2ncccc21 | 95
13 | 19 | 12 | 10 | Cc1ccc2nc3c(nc2c1C)C(=O)c1cnncc1C3=O | 13
51 | 31 | 88 | 24 | CN(C)c1ccc2nc3c(nc2c1)C(=O)c1cnncc1C3=O | 70
126 | 46 | 141 | 134 | O=C1C(=O)c2c(nc3ccc(Cl)cn23)-c2ncccc21 | 124
160 | 27 | 139 | 301 | O=C1C(=O)c2c(nc3ncccn23)-c2ncccc21 | 137
1280 | 1650 | 1360 | 1450 | Cc1cccc2nc3c(n12)C(=O)C(=O)c1cccnc1-3 | 2570
44 | 70 | 38 | 26 | COc1cc(OC)c2nc3c(nc2c1)C(=O)c1cnncc1C3=O | 33
